Experimental data: US20240059738A1, “SWITCHING PEPTIDE AND MULTIPLEX IMMUNOASSAY METHOD USING SAME” (OPTOLANE TECHNOLOGIES INC., priority 2021, published 2024)

How the values were obtained:
Anti-HBsAg antibody(g) = test: Antigen-induced release of fluorescently labeled peptide from immobilized antibody (Table 2), HBsAg antigen; type: binding, goat; settings: for fluorescence intensity remaining at bottom of plate after antigen (% of before): anti-HBsAg antibodies from goats; for Bottom (B) of microplate Change (%) / fluorescence intensity Bottom (B) of microplate After antigen binding / fluorescence intensity Bottom (B) of microplate Before antigen binding / fluorescence intensity In solution (S) After antigen binding / fluorescence intensity In solution (S) Before antigen binding: anti-HBsAg antibody (goat), HBsAg
[1] = test system: hepatitis B surface antigen-antibody; test: Antibody binding properties (fluorescence signal) of switching peptides at pH 6.0 to 8.0
Method: (§1) Regarding the antibody binding properties of the switching peptides at pH 6.0 to 8.0, a net charge of H1 and L2 peptides decreased to 0.5 at pH 6.0 to 7.0 due to a histidine residue with a pKa value of 6.02. In addition, the net charge of the H2 and L2 peptides decreased to 0.5 at pH 7.0 to 8.0 due to a cysteine residue with a pKa value of 8.18. […] Therefore, the immunoassay was performed by selecting an L1 peptide having specific dissociation from hepatitis B surface antigen-antibody binding and stability within a pH range of human serum immunoassay.

[2] = test system: rabbit anti-HRP antibodies (Fab region); test: Papain treatment of immobilized antibody with bound fluorescently labeled switching peptide (FIG. 6B); type: binding; settings: after papain treatment compared to before
Source text: FIG. 6A is a schematic diagram illustrating states before and after treatment of the antibody to which the four types of peptides of Example 1 were bound, respectively, with papain, which is a protease, and FIG. 6B is graphs illustrating a fluorescence intensity measured at a bottom (B) of the microplate and in a solution (S) after the papain treatment. In the case of this experiment, after immobilization of the antibodies (rabbit anti-HRP antibodies) on the microplate, binding between the antibody and the switching peptide was induced by treatment with a fluorescently labeled switching peptide, the unbound switching peptide was removed, and then the Fab region was hydrolyzed from the immobilized antibodies by adding papain, which is a protease.
Referring to FIG. 6A, the fluorescence at the bottom (B) of the microplate is expected to decrease after the papain reaction because the fluorescently labeled switching peptides are bound to the Fab region of antibodies, and the fluorescence in the solution is expected to increase because the Fab region to which the switching peptide is bound is hydrolyzed and dissolved into the solution. This prediction is proven to be true from the graphs of FIG. 6B.

HRP, CRP, HBsAg, and hCG = test system: HRP, CRP, HBsAg, and hCG
Method: After immobilizing the hepatitis B surface antigen (HBsAg)-antibody detected using the immunoassay of the peptide compounds of Example 1 on a microplate, L1 peptide was added, and 0.04 to 30 μg/ml of the hepatitis B surface antigen was treated.

Anti-CRP antibody(r) = test: Antigen-induced release of fluorescently labeled peptide from immobilized antibody (Table 2), CRP antigen; type: binding; settings: anti-CRP antibody (rabbit)
[3] = test system: anti-HRP antibody from a rabbit; test: One-step immunoassay with varying HRP concentration (FIGS. 7A-7C); type: binding; settings: HRP 0.3 to 100 μM; for Kd: estimated, read-out: Equilibrium dissociation constants
Source text: FIG. 7A is a schematic diagram for explaining an immunoassay method using fluorescently labeled peptide compounds of Example 1, and FIGS. 7B and 7C are graphs illustrating the fluorescence intensities in a solution and at a bottom of the microplate depending on a concentration of the antigen measured by the immunoassay method illustrated in FIG. 7A. In this experiment, an anti-HRP antibody from a rabbit immobilized on a microplate was used as the binding antibody and HRP was used as the antigen.

H2 peptide = test: FRET interaction between L1 and H2 peptides on microplate; type: binding; settings: with increasing concentration of L1 peptide; FAM/TAMRA labels
Source text: FIG. 4A is diagrams illustrating a method for confirming a specific interaction between L1 and H2 peptides and a specific interaction between L2 and H1 peptides and the measurement results thereof, and FIG. 4B is diagrams for explaining a specific interaction between L1 and H2 peptides and a specific interaction between L2 and H1 peptides analyzed using PyMOL software. Here, at the ends of the L1 and L2 peptides, a first fluorescent label, FAM (λex=488 nm, λem=532 nm) was modified, and at the ends of the H1 and H2 peptides, a second fluorescent label, TAMRA λex=532 nm, λem=570 nm) was modified. Meanwhile, the first peptide (L1 or L2) was immobilized on a parylene-H-coated microplate through a covalent bond between a formyl group of parylene-H and a primary amine group of a lysine residue in the peptide, and the second peptide (H2 or H1) was incubated with the immobilized first peptide (L1 or L2) to allow specific interactions between them.
Referring to FIG. 4A, the interaction between the L1 and H2 peptides was observed by changing the concentration of the L1 peptide, and the FRET intensity increased with increasing the concentration of the L1 peptide.

Anti-HRP antibody(r) = test: Antigen-induced release of fluorescently labeled peptide from immobilized antibody (Table 2), HRP antigen; type: binding, rabbit; settings: for remaining fluorescence intensity at plate bottom after antigen binding (% of before): anti-HRP antibodies from rabbits; for Bottom (B) of microplate Change (%) / fluorescence intensity Bottom (B) of microplate After antigen binding / fluorescence intensity Bottom (B) of microplate Before antigen binding / fluorescence intensity In solution (S) After antigen binding / fluorescence intensity In solution (S) Before antigen binding: anti-HRP antibody (rabbit), HRP
Anti-hCG antibody(m) = test: Antigen-induced release of fluorescently labeled peptide from immobilized antibody (Table 2), hCG antigen; type: binding; settings: anti-hCG antibody (mouse)
[4] = Net charge of switching peptides at pH 6.0 to 8.0; type: physicochemical
Method: as §1

[5] = pH 7.0 to 8.0, cysteine residue pKa 8.18

| Sequence | fluorescence intensity remaining at bottom of plate after antigen (% of before) (Anti-HBsAg antibody(g)) [%] | Bottom (B) of microplate Change (%) (Anti-HBsAg antibody(g)) | fluorescence intensity Bottom (B) of microplate After antigen binding (Anti-HBsAg antibody(g)) | fluorescence intensity Bottom (B) of microplate Before antigen binding (Anti-HBsAg antibody(g)) | fluorescence intensity In solution (S) After antigen binding (Anti-HBsAg antibody(g)) | fluorescence intensity In solution (S) Before antigen binding (Anti-HBsAg antibody(g)) | decrease of fluorescence intensity at the bottom of the microplate [2] [%] | increase of fluorescence intensity in the solution [2] | Bottom (B) of microplate Change (%) (Anti-CRP antibody(r)) | In solution (S) Change (%) (Anti-CRP antibody(r)) | fluorescence intensity Bottom (B) of microplate After antigen binding (Anti-CRP antibody(r)) | fluorescence intensity Bottom (B) of microplate Before antigen binding (Anti-CRP antibody(r)) | fluorescence intensity In solution (S) After antigen binding (Anti-CRP antibody(r)) | fluorescence intensity In solution (S) Before antigen binding (Anti-CRP antibody(r)) | fluorescence intensity in the solution depending on the concentration of the antigen (HRP) [3] | Kd [3] [µM] | remaining fluorescence intensity at plate bottom after antigen binding (% of before) (Anti-HRP antibody(r)) [%] | Bottom (B) of microplate Change (%) (Anti-HRP antibody(r)) | fluorescence intensity Bottom (B) of microplate After antigen binding (Anti-HRP antibody(r)) | fluorescence intensity Bottom (B) of microplate Before antigen binding (Anti-HRP antibody(r)) | further results |
| --- | --- | --- | --- | --- | --- | --- | --- | --- | --- | --- | --- | --- | --- | --- | --- | --- | --- | --- | --- | --- | --- |
| TYLEWYPQKPGQSPKLLIYK [L1, TYLEW YPQKP GQSPK LLIYK] | 48.7 | −51.3 | 5388 | 11062 | 20501 | 2779 | 84.8 | 1,032% | −48.6 | +778% | 3456 | 6719 | 6505 | 741 | increase | 3.29 | 12.7 | −87.3 | 1990 | 15608 | fluorescence signal in pH range required for immunoassay of HBsAg in human serum [1]: almost the same fluorescence signal; selectivity among the four antigens (HRP, CRP, HBsAg, and hCG): highest selectivity; FRET intensity (H2 peptide): increased; fluorescence intensity In solution (S) After antigen binding (Anti-HRP antibody(r)): 12280; fluorescence intensity In solution (S) Before antigen binding (Anti-HRP antibody(r)): 2687; Bottom (B) of microplate Change (%) (Anti-hCG antibody(m)): −61.6%; In solution (S) Change (%) (Anti-hCG antibody(m)): +187%; fluorescence intensity Bottom (B) of microplate After antigen binding (Anti-hCG antibody(m)): 1777; fluorescence intensity Bottom (B) of microplate Before antigen binding (Anti-hCG antibody(m)): 4630; fluorescence intensity In solution (S) After antigen binding (Anti-hCG antibody(m)): 3580; fluorescence intensity In solution (S) Before antigen binding (Anti-hCG antibody(m)): 1248 |
| VYYCFQGSHVPFTK [L2, VYYCF QGSHV PFTK] | 35.2 | −64.8 | 9856 | 28002 | 15359 | 2279 | 72.5 | 2,452% | −44.9 | +883% | 11236 | 20394 | 32187 | 3274 | increase | 1.48 | 25.5 | −74.5 | 3208 | 12584 | net charge ([4]; pH 6.0 to 7.0, histidine residue pKa 6.02): 0.5; net charge [4, 5]: 0.5; fluorescence intensity In solution (S) After antigen binding (Anti-HRP antibody(r)): 16135; fluorescence intensity In solution (S) Before antigen binding (Anti-HRP antibody(r)): 2315; Bottom (B) of microplate Change (%) (Anti-hCG antibody(m)): −90.7%; In solution (S) Change (%) (Anti-hCG antibody(m)): +456%; fluorescence intensity Bottom (B) of microplate After antigen binding (Anti-hCG antibody(m)): 3072; fluorescence intensity Bottom (B) of microplate Before antigen binding (Anti-hCG antibody(m)): 33156; fluorescence intensity In solution (S) After antigen binding (Anti-hCG antibody(m)): 9402; fluorescence intensity In solution (S) Before antigen binding (Anti-hCG antibody(m)): 1692 |
| VYYCAREPTGTGIYFDVWGK [H2, VYYCA REPTG TGIYF DVWGK] | 63.9 | −36.1 | 18773 | 29367 | 9136 | 1784 | 58.7 | 2,356% | −39.5 | +677% | 22205 | 22205 | 16311 | 2099 | increase | 3.11 | 14.8 | −85.2 | 1806 | 122230 | net charge [4, 5]: 0.5; fluorescence intensity In solution (S) After antigen binding (Anti-HRP antibody(r)): 18128; fluorescence intensity In solution (S) Before antigen binding (Anti-HRP antibody(r)): 2272; Bottom (B) of microplate Change (%) (Anti-hCG antibody(m)): −88.5%; In solution (S) Change (%) (Anti-hCG antibody(m)): +416%; fluorescence intensity Bottom (B) of microplate After antigen binding (Anti-hCG antibody(m)): 23320; fluorescence intensity Bottom (B) of microplate Before antigen binding (Anti-hCG antibody(m)): 23320; fluorescence intensity In solution (S) After antigen binding (Anti-hCG antibody(m)): 8545; fluorescence intensity In solution (S) Before antigen binding (Anti-hCG antibody(m)): 1654 |
